# Peptide text beside a SMILES is read from it. * marks the point of attachment. Cbz = O=C(OCc1ccccc1)*
# Assays:
# USP10 = experiment: Western blot of STEN (soluble) extracts of M17 cells, endogenous USP10 level; type: cell-based, human; settings: M17 cells transfected with 3 μg lentiviral plasmids for 48 hr; FIG. 27A 2nd blot
# Procedure: (§1) To further determine whether USP13 targets parkin, M17 cells were transfected with 3 μg lentiviral plasmids containing parkin, USP13 or different shRNA USP13 clones (FIG. 27A) for 48 hr. The expression level of the shRNAs was determined by routine stereology of the GFP and VS-tagged lentivirus to ensure equal expression of lentiviral plasmids. USP13 gene expression level is verified by PCR. Co-expression of USP13 and parkin led to an increase (134%) in parkin level compared to parkin alone (FIG. 27A, 1st blot, N=4), but shRNA expression reduced USP13 and parkin levels relative to actin (FIG. 27A). […] To ascertain that manipulation of USP13 expression affects protein clearance, the activity of the 20S proteasome activity was measured using chymotrypsin-like assays. Proteasome activity was inhibited after 2 hr treatment with 20 μM proteasome inhibitor MG132 compared to control (LacZ) or parkin alone (FIG. 27B, N=4).
# 20S proteasome = target: T1, 20S proteasome (Homo sapiens, UniProt P28074); experiment: Chymotrypsin-like proteasome activity assay in M17 cells; type: cell-based; settings: for effects of USP13 overexpression on proteasome activity: shRNA with USP13 overexpression
# T1 construct: endogenous in cells; host or cells: human M17 neuroblastoma cells
# Procedure: as §1
# parkin = experiment: Western blot of STEN (soluble) extracts of M17 cells, parkin level; type: cell-based, human; settings: M17 cells transfected with 3 μg lentiviral plasmids for 48 hr; FIG. 27A 3rd blot
# Procedure: as §1
# USP13 = experiment: Western blot of STEN (soluble) extracts of M17 cells, USP13 level; type: cell-based, human; settings: M17 cells transfected with 3 μg lentiviral plasmids for 48 hr; FIG. 27A 1st blot
# Procedure: as §1
Compound,effect on USP10 level (USP10),effects of USP13 overexpression on proteasome activity (20S proteasome),further results
"F03: USP13 shRNA clone, 5′ TTTCTCGCAGGTCGCATCT 3′ (SEQ ID NO: 3)",without any effects,completely reversed,"increase of proteasome activity (20S proteasome; blocking USP13 with shRNA, compared to control): 14%"
"E08: USP13 shRNA clone, 5′ TATTCGTTGCTCGTAGTGC 3′(SEQ ID NO: 5)",did not produce any significant effects,–,effect on parkin level (parkin): did not produce any significant effects; effect on USP13 level (USP13): did not produce any significant effects
"CC(C)C[C@@H](C=O)NC(=O)[C@H](CC(C)C)NC(=O)[C@H](CC(C)C)NC(=O)OCc1ccccc1 [MG132, reference compound] (Cbz-Leu-Leu-Leu-aldehyde)",–,–,"proteasome activity (20S proteasome; 2 hr treatment with 20 μM, compared to control (LacZ) or parkin alone, N=4): inhibited; effect on shRNA-mediated increase/reversal of proteasome activity (20S proteasome; MG132 added to shRNA (F03, F02) conditions): blocked these effects; proteasome activity (20S proteasome; cells co-expressing USP13 with parkin): further inhibited"
"F02: USP13 shRNA clone, 5′ TCTTGTAGACCCTGTCGCC 3′ (SEQ ID NO: 4)",without any effects,completely reversed,–
"E07: USP13 shRNA clone, 5′ TTTCCAGTGAAGTACACAG 3′ (SEQ ID NO: 1)",without any effects,–,–
"F04: USP13 shRNA clone, 5′AACTTAGTCATCTGTGTGT 3′ (SEQ ID NO: 2)",without any effects,–,–

# Source: patent US9393244B2, “Increasing parkin activity by administering a deubiquitinating enzyme inhibitor” (Georgetown University, priority 2013, dated 2016)
